Data published in patent US20240368163A1, “COMPOUNDS AND METHODS FOR MODULATING SPLICING” (REMIX THERAPEUTICS INC., priority 2021, published 2024).

Experiments:
Type in all cases: cell-based, human
Target C [1] = experiment: Splicing RT-qPCR panel, Target C canonical junction (CJ) mRNA; conditions: RT-qPCR panel, canonical junction mRNA, compound concentration having 50% response in CJ decrease, read-out: Target C IC50 (decrease in CJ mRNA levels)
How it was run: (§1)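 A673 or K562 cells were treated 24 h at 37 °C with an 11-point 3-fold dilution series (top 10 uM final, DMSO ≤0.25%). Lysates underwent one-step RT-qPCR for canonical (CJ) and alternative (AJ) junctions; Ct normalized to GAPDH, GUSB or PPIA and DMSO control via 2^(−ΔΔCt), expressed as percentage response.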

MYB [2] = experiment: Splicing RT-qPCR assay, MYB mRNA canonical junction (CJ) and alternative junction (AJ); conditions: for AC50: increase in AJ mRNA
How it was run: as §1

MYB [3] = experiment: HiBiT protein abundance assay, MYB; conditions: Table 13A, modified K562 cells
How it was run: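 HiBiT knock-in K562, 10000 cells/well, 24 h cpd at 37 °C/5% CO2; 10-pt 3-fold series from 10 μM final; DMSO ≤0.25%. Lytic detection, luminescence read. 4PL fit → IC50 vs DMSO control; unmodified K562 = baseline.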

Target C [4] = experiment: HiBiT protein abundance assay, Target C; conditions: Table 13A, modified K562 cells
How it was run: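 Luminescence from lytic HiBiT detection, taken after 24 h compound exposure at 37 °C, reports tagged protein abundance in knock-in cells seeded at 10000 cells/well. Doses spanned 10 points, 3-fold steps, top 10 μM final. A four-parameter logistic fit gave the 50% abundance concentration (IC50).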

[5] = RT-qPCR panel, canonical junction mRNA, compound concentration having 50% response in CJ decrease, read-out: MYB IC50 (decrease in CJ mRNA levels)
[6] = decrease in CJ mRNA, A673 or K562 cells, 24 hours treatment, RT-qPCR, read-out: MYB CJ IC50
[7] = Homo sapiens, 24 h, decrease in CJ mRNA, A673 or K562 cells, 24 hours treatment, RT-qPCR, read-out: MYB CJ IC50
[8] = Homo sapiens, 24 h, A673 or K562 cells, 24 hours treatment, RT-qPCR
[9] = Homo sapiens, RT-qPCR panel, canonical junction mRNA, compound concentration having 50% response in CJ decrease, read-out: MYB IC50 (decrease in CJ mRNA levels)

`CC(C)(C)NC1CCN(c2ccc(-c3ccc(-c4cn[nH]c4)c4ncsc34)nn2)C1` (stereo not drawn) [Compound 336] was tested, and the IC50 (Target C [1]) was over 10000 nM, the IC50 (MYB [2]; [5]) was 100 to 1000 nM and the IC50 (MYB [2]; [6]) was 100 to 1000 nM. It also gave an IC50 (MYB [3]; 24 hours) of 100 to 1000 nM and an IC50 (Target C [4]; 24 hours) of 100 to 1000 nM.

Work on `c1nc2c(-c3cn[nH]c3)ccc(-c3ccc(N4CCC(NC5CC5)C4)nn3)c2s1` (stereo not drawn) [Compound 337] yielded an IC50 (Target C [1]; Homo sapiens) of over 10000 nM, an IC50 (MYB [2]; [7]) of over 10000 nM and an AC50 (MYB [2]; [8]) of over 10000 nM. It also gave an IC50 (MYB [2]; [9]) of over 10000 nM, an IC50 (MYB [3]; Homo sapiens, K562, 24 h) of 100 to 1000 nM and an IC50 (Target C [4]; Homo sapiens, K562, 24 h) of over 10000 nM.

In the case of `Fc1cc(-c2ccc(N[C@@H]3C[C@H]4CC[C@@H](C3)N4)nn2)c2scnc2c1-c1cn[nH]c1` [Compound 339], the IC50 (Target C [1]; Homo sapiens) is reported as under 100 nM, the IC50 (MYB [2]; [7]) is reported as under 100 nM and the AC50 (MYB [2]; [8]) is reported as under 100 nM. It also gave an IC50 (MYB [2]; [9]) of under 100 nM, an IC50 (MYB [3]; Homo sapiens, K562, 24 h) of under 100 nM and an IC50 (Target C [4]; Homo sapiens, K562, 24 h) of under 100 nM.

For `Cc1ncc(-c2ccc(-c3ccc(O[C@@H]4C[C@H]5CC[C@@H](C4)N5)nn3)c3scnc23)s1` [Compound 348, 7-{6-[(exo)-8-azabicyclo[3.2.1]octan-3-yloxy]pyridazin-3-yl}-4-(2-methyl-1,3-thiazol-5-yl)-1,3-benzothiazole], the IC50 (Target C [1]; Homo sapiens) was 100 to 1000 nM, the IC50 (MYB [2]; [7]) was 100 to 1000 nM and the AC50 (MYB [2]; [8]) was 100 to 1000 nM. The IC50 (MYB [2]; [9]) was 100 to 1000 nM, the IC50 (MYB [3]; Homo sapiens, K562, 24 h) was under 100 nM and the IC50 (Target C [4]; Homo sapiens, K562, 24 h) was 100 to 1000 nM.

In the case of `CN(c1ccc(-c2ccc(-c3cn[nH]c3)c3ncsc23)nn1)[C@H]1C[C@H]2COC[C@@H](C1)N2` [Compound 356, (endo)-N-methyl-N-{6-[4-(1H-pyrazol-4-yl)-1,3-benzothiazol-7-yl]pyridazin-3-yl}-3-oxa-9-azabicyclo[3.3.1]nonan-7-amine], the IC50 (Target C [1]) is reported as under 100 nM, the IC50 (MYB [2]; [5]) is reported as 100 to 1000 nM and the IC50 (MYB [2]; [6]) is reported as 100 to 1000 nM. For the same compound, the IC50 (MYB [3]; 24 hours) was under 100 nM and the IC50 (Target C [4]; 24 hours) was under 100 nM.

Work on `COc1cc(-c2ccc(-c3ccc(O[C@@H]4C[C@H]5CC[C@@H](C4)N5)nn3)c3scnc23)cnn1` [Compound 362] yielded an IC50 (Target C [1]; Homo sapiens) of 100 to 1000 nM, an IC50 (MYB [2]; [7]) of 100 to 1000 nM and an AC50 (MYB [2]; [8]) of under 100 nM. For the same compound, the IC50 (MYB [2]; [9]) was 100 to 1000 nM, the IC50 (MYB [3]; Homo sapiens, K562, 24 h) was under 100 nM and the IC50 (Target C [4]; Homo sapiens, K562, 24 h) was under 100 nM.

For `Fc1ccn(-c2ccc(-c3ccc(O[C@@H]4C[C@H]5CC[C@@H](C4)N5)nn3)c3scnc23)n1` [Compound 363], the IC50 (Target C [1]; Homo sapiens) was 100 to 1000 nM, the IC50 (MYB [2]; [7]) was 100 to 1000 nM and the AC50 (MYB [2]; [8]) was 100 to 1000 nM. The IC50 (MYB [2]; [9]) was 100 to 1000 nM, the IC50 (MYB [3]; Homo sapiens, K562, 24 h) was 100 to 1000 nM and the IC50 (Target C [4]; Homo sapiens, K562, 24 h) was 100 to 1000 nM.

With `CN(c1ncc(-c2ccc(-n3cccn3)c3[nH]ncc23)nn1)[C@@H]1C[C@H]2CCC[C@@H](C1)N2` [Compound 551] the IC50 (Target C [1]; Homo sapiens) was under 100 nM, the IC50 (MYB [2]; [9]) was 100 to 1000 nM and the IC50 (MYB [3]; Homo sapiens, K562, 24 h) was under 100 nM. For the same compound, the IC50 (Target C [4]; Homo sapiens, K562, 24 h) was under 100 nM.

In the case of `c1cnn(-c2ccc(-c3cnc(N[C@@H]4C[C@H]5CC[C@@H](C4)N5)nn3)c3cn[nH]c23)c1` [Compound 556], the IC50 (Target C [1]; Homo sapiens) is reported as 100 to 1000 nM, the IC50 (MYB [2]; [9]) is reported as 100 to 1000 nM and the IC50 (MYB [3]; Homo sapiens, K562, 24 h) is reported as 100 to 1000 nM. For the same compound, the IC50 (Target C [4]; Homo sapiens, K562, 24 h) was under 100 nM.

`c1cnn(-c2ccc(-c3cnc(N[C@@H]4C[C@H]5CCC[C@@H](C4)N5)nn3)c3cn[nH]c23)c1` [Compound 561] was tested, and the IC50 (Target C [1]; Homo sapiens) was 100 to 1000 nM, the IC50 (MYB [2]; [9]) was 100 to 1000 nM and the IC50 (MYB [3]; Homo sapiens, K562, 24 h) was 100 to 1000 nM. It also gave an IC50 (Target C [4]; Homo sapiens, K562, 24 h) of under 100 nM.

Work on `CC(C)(C)C1CN(c2ncc(-c3ccc(-n4cccn4)c4[nH]ncc34)nn2)CCN1` (stereo not drawn) [Compound 572] yielded an IC50 (Target C [1]; Homo sapiens) of 100 to 1000 nM, an IC50 (MYB [2]; [9]) of 100 to 1000 nM and an IC50 (MYB [3]; Homo sapiens, K562, 24 h) of 100 to 1000 nM. The IC50 (Target C [4]; Homo sapiens, K562, 24 h) was 100 to 1000 nM.

`CN(c1ncc(-c2ccc(-n3cncn3)c3[nH]ncc23)nn1)[C@@H]1C[C@H]2CCC[C@@H](C1)N2` [Compound 574] was tested, and the IC50 (Target C [1]; Homo sapiens) was under 100 nM, the IC50 (MYB [2]; [9]) was 100 to 1000 nM and the IC50 (MYB [3]; Homo sapiens, K562, 24 h) was 100 to 1000 nM. It also gave an IC50 (Target C [4]; Homo sapiens, K562, 24 h) of under 100 nM.

Compound `CN(c1ncc(-c2ccc(-n3ccnn3)c3[nH]ncc23)nn1)[C@@H]1C[C@H]2CCC[C@@H](C1)N2` [Compound 576] has an IC50 (Target C [1]; Homo sapiens) of 100 to 1000 nM, an IC50 (MYB [2]; [9]) of 1000 to 10000 nM and an IC50 (MYB [3]; Homo sapiens, K562, 24 h) of 100 to 1000 nM. The IC50 (Target C [4]; Homo sapiens, K562, 24 h) was 100 to 1000 nM.

In the case of `Cc1ncc(-c2ccc(-c3cnc(N(C)[C@@H]4C[C@H]5CCC[C@@H](C4)N5)nn3)c3scnc23)s1` [Compound 578], the IC50 (Target C [1]; Homo sapiens) is reported as 100 to 1000 nM, the IC50 (MYB [2]; [9]) is reported as 100 to 1000 nM and the IC50 (MYB [3]; Homo sapiens, K562, 24 h) is reported as 100 to 1000 nM. The IC50 (Target C [4]; Homo sapiens, K562, 24 h) was under 100 nM.

Work on `Cc1nc(-c2ccc(-c3cnc(N(C)[C@@H]4C[C@H]5CCC[C@@H](C4)N5)nn3)c3scnc23)cs1` [Compound 579] yielded an IC50 (Target C [1]; Homo sapiens) of 100 to 1000 nM, an IC50 (MYB [2]; [9]) of 1000 to 10000 nM and an IC50 (MYB [3]; Homo sapiens, K562, 24 h) of 1000 to 10000 nM. The IC50 (Target C [4]; Homo sapiens, K562, 24 h) was 100 to 1000 nM.
